The values that follow come from ChEMBL document CHEMBL5154927, “Discovery of Novel Bicyclic Phenylselenyl-Containing Hybrids: An Orally Bioavailable, Potential, and Multiacting Class of Estrogen Receptor Modulators against Endocrine-Resistant Breast Cancer” (J Med Chem, 2022).

For data set [1], the system named is MCF7. Briefly: cells. Particulars: Homo sapiens, MCF7, 72 h.
Description: Antiproliferative activity against human MCF7 cells assessed as reduction in cell viability measured after 72 hrs by Cell Counting Kit-8 assay
Data set [2] can be described thus: Selectivity index, ratio of IC50 for human MCF-10A cells to IC50 for human MCF-7 cells. To be noted: MCF-10A cells and MCF-7 cells, read-out: Ratio IC50. It is filed as toxicity.
The nature of data set [3]: Antiproliferative activity against human MCF-10A cells assessed as reduction in cell viability measured after 72 hrs by Cell Counting Kit-8 assay. It is filed as toxicity, cell-based.
A short description of data set [4]: Antiproliferative activity against tamoxifen-resistant human LCC2 cells assessed as reduction in cell viability measured after 72 hrs by Cell Counting Kit-8 assay. It is filed as functional, cell-based. Particulars: LCC2, 72 h. In general terms: Tetrazolium dyes change colour on reduction, which living cells bring about.
Data set [5] relates to MDA-MB-231. Briefly: cells. To be noted: Homo sapiens, MDA-MB-231, 72 h.
Description: Antiproliferative activity against human MDA-MB-231 cells assessed as reduction in cell viability measured after 72 hrs by Cell Counting Kit-8 assay
The target in data set [6] is Estrogen receptor beta (Homo sapiens) (UniProt Q92731). The experiment in a line: Relative binding affinity to human ERbeta measured after 2 hrs by competitive fluorometric binding assay relative to estradiol.
Sequence of Estrogen receptor beta (Homo sapiens) (Q92731 whole entry): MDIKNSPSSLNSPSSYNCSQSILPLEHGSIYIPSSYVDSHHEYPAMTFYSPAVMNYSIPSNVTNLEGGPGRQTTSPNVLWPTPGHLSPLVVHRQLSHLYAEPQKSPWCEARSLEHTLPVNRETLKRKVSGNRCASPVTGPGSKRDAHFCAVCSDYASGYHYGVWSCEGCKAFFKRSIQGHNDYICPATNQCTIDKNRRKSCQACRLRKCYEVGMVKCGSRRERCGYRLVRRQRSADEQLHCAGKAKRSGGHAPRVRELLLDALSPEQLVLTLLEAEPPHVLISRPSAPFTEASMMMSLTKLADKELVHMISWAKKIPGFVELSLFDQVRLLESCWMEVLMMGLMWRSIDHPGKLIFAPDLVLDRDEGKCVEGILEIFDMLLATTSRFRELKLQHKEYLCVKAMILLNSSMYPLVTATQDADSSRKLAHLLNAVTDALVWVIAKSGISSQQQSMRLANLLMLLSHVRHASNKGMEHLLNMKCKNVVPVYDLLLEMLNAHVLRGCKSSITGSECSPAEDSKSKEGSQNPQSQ
Data set [7] addresses T1, Hexokinase-1 (Homo sapiens) (UniProt P19367).
T1 sequence (whole entry): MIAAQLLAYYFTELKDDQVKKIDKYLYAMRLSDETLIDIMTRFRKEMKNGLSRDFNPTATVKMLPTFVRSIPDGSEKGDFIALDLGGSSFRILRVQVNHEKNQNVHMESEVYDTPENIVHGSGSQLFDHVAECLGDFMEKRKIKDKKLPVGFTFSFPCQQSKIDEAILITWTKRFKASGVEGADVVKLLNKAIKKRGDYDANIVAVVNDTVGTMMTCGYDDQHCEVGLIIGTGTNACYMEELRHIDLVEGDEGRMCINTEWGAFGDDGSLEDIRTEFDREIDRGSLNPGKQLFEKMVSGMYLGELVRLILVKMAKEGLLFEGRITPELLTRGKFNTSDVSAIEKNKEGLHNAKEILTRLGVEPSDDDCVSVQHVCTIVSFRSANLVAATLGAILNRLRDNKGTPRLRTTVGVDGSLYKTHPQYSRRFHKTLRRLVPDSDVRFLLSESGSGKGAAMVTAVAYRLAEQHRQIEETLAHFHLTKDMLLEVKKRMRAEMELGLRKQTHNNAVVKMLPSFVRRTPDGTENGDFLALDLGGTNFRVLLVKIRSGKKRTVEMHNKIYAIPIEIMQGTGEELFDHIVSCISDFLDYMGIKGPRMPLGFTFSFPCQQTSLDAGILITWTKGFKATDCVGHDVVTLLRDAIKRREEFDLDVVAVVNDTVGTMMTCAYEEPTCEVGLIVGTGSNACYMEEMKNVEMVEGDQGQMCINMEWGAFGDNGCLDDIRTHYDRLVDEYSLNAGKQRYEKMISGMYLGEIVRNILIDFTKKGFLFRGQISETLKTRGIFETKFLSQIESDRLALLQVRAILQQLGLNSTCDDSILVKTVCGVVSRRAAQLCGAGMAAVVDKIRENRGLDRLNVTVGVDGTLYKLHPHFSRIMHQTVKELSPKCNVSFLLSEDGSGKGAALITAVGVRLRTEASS
Briefly: Binding affinity to hexokinase-1 in human MCF7 cell lysate assessed as HK-1 pull down by western blotting based Co-immunoprecipitation assay. It is filed as subcellular. Particulars: filed as antagonist.

Data set [8] is filed under the species Homo sapiens. The experiment in a line: Selectivity ratio of relative binding affinity for human ERalpha to relative binding affinity for human ERbeta.
Data set [9] relates to MCF7. Briefly: Induction of apoptosis in human MCF7 cells at 20 uM incubated for 48 hrs by annexin V-FITC staining based flow cytometry. It is filed as functional, cell-based. A general note: Flow cytometry measures light scatter and fluorescence of single cells or particles in a stream.
Data set [10] concerns MCF7. Briefly: Antitumor activity against human MCF7 cells xenografted in BALB/C mouse assessed as increase in tumor necrosis area at 20 mg/kg, po […]. It is filed as functional, organism-based. For orientation: Xenograft models place foreign cells or tissue in a host animal.
The subject of data set [11] is MCF7. Briefly: Antitumor activity against human MCF7 cells xenografted in BALB/C mouse assessed as decrease in cell proliferation at 20 mg/kg, po by Ki67 staining based immunohistochemical analysis. It is filed as functional, organism-based.

Calls of active or inactive are those of the source. The calls are words filed in the database; no cut-off is given here. Some results are limits rather than exact numbers.

A word on the IC50: it is the midpoint of a concentration-inhibition curve. Turning to `Cc1cccc(OS(=O)(=O)C2CC3OC2C(c2ccc([Se]c4ccccc4)cc2)=C3c2ccc(O)cc2)c1` (centres undefined), the IC50 in data set [1] is 0.12 µM; in [4] it was 8.42 µM; in data set [5], 12.6 µM. Besides, the selectivity ratio in data set [2] was 255. The IC50 at 72 h in data set [3] was found to be 30.6 µM.
`O=S(=O)(Oc1ccc(C(F)(F)F)cc1)C1CC2OC1C(c1ccc(O)cc1)=C2c1ccc([Se]c2ccccc2)cc1` (centres undefined): the IC50 is 0.15 µM in [1], more than 31 µM in [4] and 22 µM in data set [5]. Besides, the selectivity ratio in data set [2] was 94.3. For the same compound, in data set [3], the IC50 at 72 h stood at 14.1 µM.
Compound `O=C(CCC[C@@H]1SC[C@@H]2NC(=O)N[C@@H]21)Nc1cccc2c(OS(=O)(=O)C3CC4OC3C(c3ccc(O)cc3)=C4c3ccc(O)cc3)cccc12` (some centres undefined) registered an RBA in [6] of 0.1%. For the same compound, the result in data set [7] was Active. The Ratio in data set [8] was determined as 3.4.
On to `O=S(=O)(Oc1ccccc1)C1CC2OC1C(c1ccc(O)cc1)=C2c1ccc(O)cc1` (centres undefined), for which the IC50 in data set [1] is 14.6 µM; in data set [4] it was more than 31 µM; in data set [5], 32.3 µM. In data set [2], the selectivity ratio is more than 4.11. In addition, the IC50 at 72 h in data set [3] is more than 60 µM. Besides, the result in data set [9] was Active.
On to `O=S(=O)(Oc1ccc(Br)cc1)C1CC2OC1C(c1ccc([Se]c3ccccc3)cc1)=C2c1ccc(O)cc1` (centres undefined), for which the values for the IC50 in [1], in [4] and in data set [5] were 0.31 µM, 25 µM and 18.3 µM, respectively. Also, in [2], the selectivity ratio came out at 90.8. Moreover, the IC50 at 72 h in [3] stood at 28.2 µM.
`COc1cccc(OS(=O)(=O)C2CC3OC2C(c2ccc(O)cc2)=C3c2ccc([Se]c3ccccc3)cc2)c1` (centres undefined): the figures for the IC50 in [1], in [4] and in [5] were 0.66 µM, 4.8 µM and 10.5 µM, respectively. Further, the selectivity ratio in data set [2] worked out at 27.1. Also, the IC50 at 72 h in data set [3] is 17.9 µM.
As for `O=S(=O)(Oc1cccc(C(F)(F)F)c1)C1CC2OC1C(c1ccc([Se]c3ccccc3)cc1)=C2c1ccc(O)cc1` (centres undefined), the IC50 is 0.54 µM in data set [1], 8.76 µM in data set [4] and 16.8 µM in data set [5]. In addition, the selectivity ratio in data set [2] is 75.9. Besides, the IC50 at 72 h in [3] was determined as 41 µM.
Consider `CC/C(=C(\c1ccc(O)cc1)c1ccc(OCCN(C)C)cc1)c1ccccc1` [AFIMOXIFENE], for which the IC50 in data set [4] is 22.2 µM; in [5], 18.4 µM.
For the compound `O=S(=O)(Oc1ccc(Cl)cc1)C1CC2OC1C(c1ccc(O)cc1)=C2c1ccc([Se]c2ccccc2)cc1` (centres undefined), the IC50 stood at 0.37 µM in data set [1], 6.64 µM in data set [4] and 11 µM in data set [5]. Besides, the selectivity ratio in data set [2] was determined as 86.4. Also, in data set [3], the IC50 at 72 h was found to be 32 µM.
For the compound `O=S(=O)(Oc1cccc(O)c1)C1CC2OC1C(c1ccc(O)cc1)=C2c1ccc([Se]c2ccccc2)cc1` (centres undefined), the results for the IC50 in data set [1], in [4] and in data set [5] were 0.07 µM, 2.88 µM and 7.13 µM, respectively. The selectivity ratio in data set [2] was found to be 106. In [3], the half-maximal inhibitory concentration (IC50) at 72 h was 7.41 µM.
The matching figures for `O=S(=O)(Oc1ccc([Se]c2ccccc2)cc1)C1CC2OC1C(c1ccc(O)cc1)=C2c1ccc(O)cc1` (centres undefined): 0.8 µM, 20.5 µM, 31.6 µM, more than 75 and more than 60 µM.
For `O=S(=O)(Oc1cccc([Se]c2ccccc2)c1)C1CC2OC1C(c1ccc(O)cc1)=C2c1ccc(O)cc1` (centres undefined), the values for the IC50 in data set [1], in data set [4] and in data set [5] were 1.71 µM, more than 31 µM and 25.6 µM, respectively. The selectivity ratio in data set [2] was found to be 29.4. Moreover, the half-maximal inhibitory concentration (IC50) at 72 h in data set [3] worked out at 50.3 µM.
Consider `O=S(=O)(Oc1ccc(Cl)cc1)C1CC2OC1C(c1ccc([Se]c3ccccc3)cc1)=C2c1ccc(O)cc1` (centres undefined), for which the IC50 was 0.14 µM in data set [1], 6.88 µM in data set [4] and 11 µM in data set [5]. In addition, the selectivity ratio in data set [2] was 186. Besides, in [3], the IC50 at 72 h stood at 26.1 µM.
`O=S(=O)(Oc1ccc(O)cc1)C1CC2OC1C(c1ccc(O)cc1)=C2c1ccc([Se]c2ccccc2)cc1` (centres undefined): the IC50 in data set [1] is 1.96 µM; in data set [4], more than 31 µM; in data set [5], 12.2 µM. Besides, the selectivity ratio in data set [2] is 8.54. In addition, in [3], the IC50 at 72 h turned out to be 16.7 µM.
With `O=S(=O)(Oc1ccc(C(F)(F)F)cc1)C1CC2OC1C(c1ccc([Se]c3ccccc3)cc1)=C2c1ccc(O)cc1` (centres undefined), the IC50 came to 0.45 µM in data set [1] and 27.5 µM in data set [5]. The selectivity ratio in data set [2] was 41.2. In data set [3], the IC50 at 72 h was determined as 18.5 µM.
Turning to `O=S(=O)(Oc1ccc(Br)cc1)C1CC2OC1C(c1ccc(O)cc1)=C2c1ccc([Se]c2ccccc2)cc1` (centres undefined), the IC50 in data set [1] was 0.55 µM; in [4] it was more than 31 µM; in data set [5], 17.4 µM. In addition, the selectivity ratio in data set [2] was determined as 75.6. Also, the IC50 at 72 h in data set [3] turned out to be 43.2 µM.
On to `O=S(=O)(Oc1cccc(Br)c1)C1CC2OC1C(c1ccc([Se]c3ccccc3)cc1)=C2c1ccc(O)cc1` (centres undefined), for which the IC50 in data set [1] is 1.36 µM; in [4], more than 31 µM; in [5], 19.2 µM. The selectivity ratio in data set [2] came out at 12.7. In addition, the IC50 at 72 h in [3] amounted to 17.3 µM.
As for `O=S(=O)(Oc1cccc2ccccc12)C1CC2OC1C(c1ccc(O)cc1)=C2c1ccc([Se]c2ccccc2)cc1` (centres undefined), the results for the IC50 in [1] and in data set [5] were 1.13 µM and 45.5 µM, respectively. Besides, the selectivity ratio in [2] is more than 53.1. Also, the IC50 at 72 h in data set [3] was more than 60 µM.
Take `COc1ccc(OS(=O)(=O)C2CC3OC2C(c2ccc(O)cc2)=C3c2ccc([Se]c3ccccc3)cc2)cc1` (centres undefined): the IC50 in data set [1] was 7.46 µM; in [5], more than 60 µM. Also, the selectivity ratio in data set [2] was more than 8.04. In data set [3], the IC50 at 72 h is more than 60 µM.
Consider `CC/C(=C(\c1ccccc1)c1ccc(OCCN(C)C)cc1)c1ccccc1`, for which the result in data set [10] and in data set [11] was Active.
Turning to `O=S(=O)(Oc1ccccc1)C1CC2OC1C(c1ccc(O)cc1)=C2c1ccc([Se]c2ccccc2)cc1` (centres undefined), the IC50 in data set [1] is 0.16 µM; in data set [5], more than 60 µM. In addition, the selectivity ratio in data set [2] is more than 375. Besides, the IC50 at 72 h in data set [3] is more than 60 µM.
For `Cc1ccc(OS(=O)(=O)C2CC3OC2C(c2ccc([Se]c4ccccc4)cc2)=C3c2ccc(O)cc2)cc1` (centres undefined), the IC50 in data set [1] was 0.41 µM; in data set [4], 6.82 µM; in data set [5] it was 8.49 µM. Further, the selectivity ratio in data set [2] was 45.1. In addition, the IC50 at 72 h in [3] was 18.5 µM.
The like results for `COc1ccc(OS(=O)(=O)C2CC3OC2C(c2ccc([Se]c4ccccc4)cc2)=C3c2ccc(O)cc2)cc1` (centres undefined) were, in that order, 0.21 µM, 5.92 µM, 9.71 µM, 138 and 29.1 µM.
Consider `O=S(=O)(Oc1cccc(Cl)c1)C1CC2OC1C(c1ccc([Se]c3ccccc3)cc1)=C2c1ccc(O)cc1` (centres undefined), for which the results for the IC50 in data set [1], in [4] and in data set [5] were 0.18 µM, more than 31 µM and 41.9 µM, respectively. Moreover, in data set [2], the selectivity ratio was 97.8. Also, the IC50 at 72 h in data set [3] was 17.6 µM.
For the compound `Cc1ccc(OS(=O)(=O)C2CC3OC2C(c2ccc(O)cc2)=C3c2ccc([Se]c3ccccc3)cc2)cc1` (centres undefined), the IC50 in data set [1] was determined as 3.98 µM; in data set [4] it was 6.08 µM; in data set [5], 8.05 µM. For the same compound, in [2], the selectivity ratio stood at 4.6. Besides, the half-inhibitory concentration (IC50) at 72 h in [3] was 18.3 µM.
